“Also recorded” adds a separate entry of the source.
What was measured:
eotaxin-3 = assay: Cytokine mixture (CM)-induced eotaxin-3 expression in ASM cells, dexamethasone with or without pitavastatin; assay type: cell-based, human; conditions: pitavastatin 0.1, 0.5 or 1 μM added to dexamethasone 0.1, 1 or 5 μM, 60 hrs; CM 15 hrs; FIG. 18
Experimental: Primary human airway smooth muscle cells were cultured to confluence in serum-containing media (10% FBS), then pre-treated with dexamethasone (“Dex”) at 0.1, 1, or 5 μM, with or without pitavastatin (“Pit”) at 0.1, 0.5, or 1 μM concentrations for 60 hrs. The ASM cells were then exposed to a mixture of cytokines ([…] IL-13, IL-17, and TNFα, “CM”) for 15 hrs, and the expression of eotaxin-3 was measured. “NT” means no treatment.

[1] = system: bronchial airways of human PCLS; assay: Histamine-induced airway constriction in human PCLS; conditions: pre-treated 24 hrs, compared to vehicle, FIG. 11C
Source text: A non-transplantable non-asthmatic human donor lung was obtained through the Gift of Hope/Regional Organ Bank of Illinois, and sliced as per published protocols. Briefly, the lung lobe was filled with 1.5% low melting temperature agarose (Type IX; Sigma, St. Louis, Mo.) in Hanks balanced salt solution (pH=7.4; Invitrogen, Carlsbad, Calif.), and sliced using a VT1200S vibrating blade microtome (Leica Microsystems, Bannockburn, Ill.) to create 250 μm thick slices. Slices were cryopreserved till the day of the experiment.
Slices were treated with pitavastatin (2 μM) for 24 hrs, before challenge with histamine (1 μM). Airway constriction was measured as luminal area changes in response to increasing doses of histamine. In both sets of PCLS samples, airway lumen area was quantified from bright field images using the Fiji image analysis software.

ROCK-2 = assay: Total ROCK-2 expression, western blot; assay type: cell-based, human; conditions: 1 μM, 24 hrs, FIG. 15C
Experimental: (§1) Non-asthmatic primary human ASM cells were treated with either vehicle or pitavastatin (1 μM) for 24 hours. Cells were then immuno-stained for F-actin expression. […] Cell lysates were analyzed by western blot for total ROCK-1, total ROCK-2, total MLC-2, and phosphorylated MLC-2. As shown in FIGS. 15C and 15D, pitavastatin reduced the total expression of ROCK-1, ROCK-2, and MLC-2 (total and phosphorylated).

[2] = system: myosin light chain-2 (MLC-2) phosphorylation; assay: Thrombin-induced MLC-2 phosphorylation, western blot; assay type: cell-based, human; conditions: 1 or 10 μM, 24 hrs; thrombin 2 U, 30 min; FIG. 5B
Experimental: (§2) Antibodies for western blot analysis against total and phospho-MLC2 were obtained from Santa Cruz Biotechnology and Cell Signaling Technology, respectively. Antibodies for pROCK1, total ROCK1, and GAPDH were obtained from Abcam. Pitavastatin was obtained from Santa Cruz Biotechnology.
Human ASM cells were treated with pitavastatin (1 or 10 μM) for 24 hours, then treated with thrombin (2 U, 30 min). As depicted in FIG. 5B, pitavastatin (1 or 10 μM) inhibited thrombin-induced MLC2 phosphorylation.

ROCK-1 = assay: Total ROCK-1 expression, western blot; assay type: cell-based, human; conditions: 1 μM, 24 hrs, FIG. 15C
Experimental: as §2, §1

IL6 = assay: IL17/TNFα-induced IL6 peptide secretion by ASM cells; assay type: cell-based, human; conditions: 2 mM pitavastatin, 72 hrs; cytokines 18 hrs at 10 ng/mL; 10% FBS; FIG. 14B
Experimental: Non-asthmatic primary human ASM cells were grown to confluence and were either untreated or pre-treated with 2 mM pitavastatin and GGPP (10 mM) for a total of 72 hours. Total cytokine stimulation was for 18 hours at 10 ng/mL. […] All experiments were conducted under serum-containing media conditions (10% FBS).

[3] = system: human ASM cells, histamine-induced contraction; assay: Contractile force screening, histamine-induced ASM contraction; assay type: cell-based
Experimental: Contractile Force Screening: Human ASM cells were grown to confluence in 96-well plates on custom NuSil™ 8100 elastic substrates (Avantor, Inc., Radnor, Pa.) (R. Rokhzan et al., Lab Invest (2019) 99(1):138-45). Fluorescent beads (diameter ˜400 nm) were embedded in the substrate surface to enable traction force calculations based on their displacements. To measure fractions, an inverted epi-fluorescence microscope (DMI 6000B, Leica Inc., Germany) equipped with a heated chamber (37° C.), a monochrome camera (Leica DFC365 FX), and a motorized stage was used. Spatial images were recorded of substrate-embedded fluorescent beads at 10× magnification. Based on the bead displacements (resolution ˜15 μm) relative to a cell-free model, together with knowledge of substrate stiffness and thickness, fractions were computed using the approach of Fourier Transform Traction Cytometry (B. Yeganeh et al., Pharmacol Ther (2014) 143(1):87-110), modified to the case of cell monolayers (E. J. Whalen et al., Cell (2007) 129(3):511-22). From each fraction map, the root-mean-squared traction (RMST) value and strain energy were calculated and reported as a measure of normal contraction in the monolayer. On a well-by-well basis, the ratio of the strain energy after vs. before treatment was computed, and all values of a given treatment group were normalized to the mean of each treatment group.
In complete media, 0.08 μM pitavastatin is sufficient to inhibit histamine-mediated ASM contraction (FIG. 4A).

O=C(O)C[C@H](O)C[C@H](O)/C=C/c1c(C2CC2)nc2ccccc2c1-c1ccc(F)cc1 [pitavastatin]
eotaxin-3 expression (eotaxin-3): Significant reductions in eotaxin-3 expression | 1 μM histamine-induced airway constriction (lumen narrowing) [1]: significantly inhibited | 1 μM histamine-induced airway constriction (lumen narrowing) ([1]; listed as Pit): significantly reduced | total (basal) expression of ROCK-2 (ROCK-2): reduced | thrombin-induced MLC2 phosphorylation [2]: inhibits; also recorded: reduced MLC-2 phosphorylation | total (basal) expression of ROCK-1 (ROCK-1): reduced | IL17/TNFα-induced IL6 peptide secretion (IL6): inhibited | potency relative to SA in prevention of histamine-induced ASM contraction [3]: at least 5 times | histamine-induced ASM contraction ([3]; 0.4 μM statin, 24 hrs): renders histamine ineffective at inducing ASM contraction | histamine-induced ASM contraction ([3]; 0.4 μM statin, 24 hrs, listed as Pit): inhibits histamine-induced ASM contraction | concentration sufficient to inhibit histamine-mediated ASM contraction ([3]; complete media, FIG. 4A): 0.08 µM | potency ranking on histamine-induced ASM contraction ([3]; pitavastatin, simvastatin, atorvastatin): most potent of the three drugs | histamine-induced ASM contraction ([3]; pre-treatment 24 hrs, histamine 10 μM, FIG. 4A/4B): significantly reduced histamine-induced ASM contraction; also recorded: potently and significantly inhibited | concentration providing a similar extent of protection from histamine-induced contraction ([3]; serum starved media): 0.4 µM

Reference: patent US20230014352A1, “INHALED STATINS AS BRONCHODILATORS TO IMPROVE LUNG FUNCTION IN RESPIRATORY DISEASES” (priority 2019, published 2023)
